According to patent US10174016B2 (BAYER AKTIENGESELLSCHAFT, priority 2014, dated 2019):
Where two headings read alike, the source gives them in different places.

Experiments:
[1] = In vitro metabolic stability in liver microsomes (calculation of CL and Fmax); format: in vitro ADME, human; details: 1 μM, 0.5 mg/mL protein, maximal oral bioavailability calculated from half-life
Experimental: In Vitro Metabolic Stability Assays Determination of in vitro metabolic stability in microsomes (including calculation of hepatic in vivo blood clearance (CL) and of maximal oral bioavailability (Fmax))
The metabolic assay was started shortly afterwards by adding the test compound to the incubation at a final volume of 1 mL. Organic solvent in the incubations was limited to […] dimethylsulfoxide (DMSO) and ≤1% acetonitrile. […] Samples were frozen at −20° C. overnight, subsequently centrifuged for 15 minutes at 3000 rpm and the supernatant was analyzed with an Agilent 1200 HPLC-system with LCMS/MS detection.
The half-life of a test compound was determined from the concentration-time plot. From the half-life (kel: slope of concentration-time plot; half-life=ln 2/kel) the intrinsic clearances were calculated. Together with the additional parameters liver blood flow, specific liver weight and microsomal protein content the hepatic in vivo blood clearance (CL) and the maximal oral bioavailability (Fmax) were calculated for the different species.
(§1) Metabolic instability is often the main clearance mechanism of xenobiotica leading to a high CL and low bioavailability which may eventually result in a short half-life and a low exposure after oral administration. Thus, reducing the susceptibility of metabolic degradation usually leads to a more favourable pharmacokinetic profile. When using liver microsomes as incubation matrix main phase I metabolic reactions, typically oxidoreductive reactions by cytochrome P450 enzymes and flavin mono-oxygenases (FMO) and hydrolytic reactions by esterases/amidases/epoxidhydrolases, are described. When the incubation of the test compound is performed in a hepatocyte matrix all potential hepatic metabolic processes (phase I and phase II) are covered.

rat hepatocytes = experiment: In vitro metabolic stability in rat hepatocytes; format: in vitro ADME, Han Wistar rats; details: 1 μM, 1.0×10^6 cells/mL, maximal oral bioavailability calculated from half-life
Experimental: Determination of in vitro metabolic stability in rat hepatocytes (including calculation of hepatic in vivo blood clearance (CL))
Hepatocytes from Han Wistar rats were isolated via a 2-step perfusion method. After perfusion, the liver was carefully removed from the rat: the liver capsule was opened and the hepatocytes were gently shaken out into a Petri dish with ice-cold Williams' medium E (WME). The resulting cell suspension was filtered through sterile gaze in 50 mL falcon tubes and centrifuged at 50×g for 3 min at room temperature. The cell pellet was resuspended in 30 mL WME and centrifuged through a Percoll® gradient for 2 times at 100×g. The hepatocytes were washed again with WME and resuspended in medium containing 5% FCS. Cell viability was determined by trypan blue exclusion.
The test compound was added to a final concentration of 1 μM. […] Samples were frozen at −20° C. overnight, subsequently centrifuged for 15 minutes at 3000 rpm and the supernatant was analyzed with an Agilent 1200 HPLC-system with LCMS/MS detection.
The half-life of a test compound was determined from the concentration-time plot. From the half-life (kel: slope of concentration-time plot; half-life=ln 2/kel) the intrinsic clearances were calculated. Together with the additional parameters liver blood flow, amount of liver cells in vivo and in vitro.
as §1

CYP1A2 = CYP1A2 (Homo sapiens (Human), UniProt P05177); experiment: CYP inhibition assay, CYP1A2
Sequence of CYP1A2 (P05177 whole entry): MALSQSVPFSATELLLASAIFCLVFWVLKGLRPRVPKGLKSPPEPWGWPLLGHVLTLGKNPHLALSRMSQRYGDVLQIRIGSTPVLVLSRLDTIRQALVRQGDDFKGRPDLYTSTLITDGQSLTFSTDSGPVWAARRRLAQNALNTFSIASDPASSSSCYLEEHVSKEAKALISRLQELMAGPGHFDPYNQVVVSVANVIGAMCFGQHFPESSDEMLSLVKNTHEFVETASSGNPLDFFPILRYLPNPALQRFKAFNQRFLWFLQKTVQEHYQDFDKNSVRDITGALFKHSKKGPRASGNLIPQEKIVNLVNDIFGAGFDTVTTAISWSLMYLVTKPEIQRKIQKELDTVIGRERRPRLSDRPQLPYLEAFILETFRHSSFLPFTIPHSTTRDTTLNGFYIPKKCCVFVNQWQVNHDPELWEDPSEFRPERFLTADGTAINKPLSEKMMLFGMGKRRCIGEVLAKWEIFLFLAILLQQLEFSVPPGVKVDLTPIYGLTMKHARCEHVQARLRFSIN
Experimental: (§2) Method Description CYP Inhibition Assay
(§3) Data analysis: The CYP-mediated activities in the presence of inhibitors were expressed as percentages of the corresponding control values. A sigmoid-shaped curve was fitted to the data, and the enzyme inhibition parameter IC50 was calculated using a nonlinear least-squares regression analysis of the plot of percent control activity versus concentration of the test inhibitor.

CYP2C8 = CYP2C8 (Homo sapiens (Human), UniProt P10632); experiment: CYP inhibition assay, CYP2C8; format: in vitro ADME; details: human liver microsomes, probe amodiquine
Sequence of CYP2C8 (P10632 whole entry): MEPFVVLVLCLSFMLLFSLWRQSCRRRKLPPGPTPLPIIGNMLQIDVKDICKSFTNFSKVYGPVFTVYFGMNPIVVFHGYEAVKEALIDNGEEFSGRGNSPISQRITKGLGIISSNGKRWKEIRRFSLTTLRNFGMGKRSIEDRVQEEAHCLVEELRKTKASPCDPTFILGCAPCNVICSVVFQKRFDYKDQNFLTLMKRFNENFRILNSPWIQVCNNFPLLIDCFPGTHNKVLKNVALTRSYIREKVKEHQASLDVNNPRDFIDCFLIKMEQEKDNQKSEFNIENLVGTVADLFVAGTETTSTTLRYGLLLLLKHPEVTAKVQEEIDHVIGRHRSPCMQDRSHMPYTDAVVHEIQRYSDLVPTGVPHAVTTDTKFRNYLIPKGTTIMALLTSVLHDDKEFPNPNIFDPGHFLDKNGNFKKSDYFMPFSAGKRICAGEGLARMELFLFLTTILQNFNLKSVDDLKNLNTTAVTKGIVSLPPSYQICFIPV
Experimental: as §2, §3

CYP2C9 = CYP2C9 (Homo sapiens (Human), UniProt P11712); experiment: CYP inhibition assay, CYP2C9; format: in vitro ADME; details: human liver microsomes, probe diclofenac
Sequence of CYP2C9 (P11712 whole entry): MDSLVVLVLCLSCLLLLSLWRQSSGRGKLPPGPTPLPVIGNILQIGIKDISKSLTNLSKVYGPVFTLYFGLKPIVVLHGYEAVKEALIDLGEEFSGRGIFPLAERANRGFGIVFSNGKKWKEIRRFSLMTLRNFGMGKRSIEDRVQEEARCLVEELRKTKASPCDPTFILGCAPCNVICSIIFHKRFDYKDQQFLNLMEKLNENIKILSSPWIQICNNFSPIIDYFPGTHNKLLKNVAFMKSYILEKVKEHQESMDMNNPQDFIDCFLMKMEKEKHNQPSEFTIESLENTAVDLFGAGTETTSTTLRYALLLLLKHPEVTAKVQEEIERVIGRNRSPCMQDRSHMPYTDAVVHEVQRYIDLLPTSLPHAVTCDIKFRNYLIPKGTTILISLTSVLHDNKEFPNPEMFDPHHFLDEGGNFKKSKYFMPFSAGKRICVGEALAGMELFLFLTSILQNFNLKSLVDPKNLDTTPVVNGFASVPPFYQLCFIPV
Experimental: as §2, §3

CYP2D6 = CYP2D6 (Homo sapiens (Human), UniProt P10635); experiment: CYP inhibition assay, CYP2D6; format: in vitro ADME; details: human liver microsomes, probe dextromethorphan
Sequence of CYP2D6 (P10635 whole entry): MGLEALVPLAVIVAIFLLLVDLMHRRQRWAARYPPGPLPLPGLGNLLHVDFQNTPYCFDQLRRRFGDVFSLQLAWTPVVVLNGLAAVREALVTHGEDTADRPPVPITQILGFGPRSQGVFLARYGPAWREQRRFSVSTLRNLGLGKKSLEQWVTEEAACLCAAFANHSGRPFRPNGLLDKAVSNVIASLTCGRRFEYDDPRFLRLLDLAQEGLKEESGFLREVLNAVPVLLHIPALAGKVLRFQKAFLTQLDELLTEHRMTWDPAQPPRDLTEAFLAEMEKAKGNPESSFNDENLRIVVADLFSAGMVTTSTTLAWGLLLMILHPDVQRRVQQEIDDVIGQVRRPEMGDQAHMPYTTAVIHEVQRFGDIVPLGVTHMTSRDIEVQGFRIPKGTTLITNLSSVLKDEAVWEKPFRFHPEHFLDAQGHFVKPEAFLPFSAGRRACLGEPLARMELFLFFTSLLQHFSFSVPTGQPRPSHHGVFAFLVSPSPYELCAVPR
Experimental: as §2, §3

CYP3A4 [2] = target: T1, CYP3A4 (Homo sapiens (Human), UniProt P08684); experiment: CYP inhibition assay, CYP3A4; format: in vitro ADME; details: human liver microsomes, probe midazolam
T1 sequence (P08684 whole entry): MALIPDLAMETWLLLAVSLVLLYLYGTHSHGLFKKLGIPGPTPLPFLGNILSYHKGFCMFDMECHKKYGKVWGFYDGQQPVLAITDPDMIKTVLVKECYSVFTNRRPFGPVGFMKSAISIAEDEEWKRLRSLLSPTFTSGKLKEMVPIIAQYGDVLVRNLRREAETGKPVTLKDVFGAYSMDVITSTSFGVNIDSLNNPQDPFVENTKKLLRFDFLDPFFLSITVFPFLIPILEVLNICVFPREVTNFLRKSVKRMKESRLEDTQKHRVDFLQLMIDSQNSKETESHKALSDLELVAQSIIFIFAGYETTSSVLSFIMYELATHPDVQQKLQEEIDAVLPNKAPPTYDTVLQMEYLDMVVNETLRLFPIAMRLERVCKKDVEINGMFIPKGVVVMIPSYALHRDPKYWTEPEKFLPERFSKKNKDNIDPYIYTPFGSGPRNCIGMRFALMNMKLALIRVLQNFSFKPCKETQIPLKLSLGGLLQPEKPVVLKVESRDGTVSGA
Experimental: as §2, §3

CYP3A4 [3] = target: T1, CYP3A4; experiment: Pre-incubation CYP inhibition assay, CYP3A4 (time dependent inhibition); format: in vitro ADME; details: human liver microsomes, probe midazolam, 30 min pre-incubation; read-out: CYP3A4 with preincubation IC50
Source text: as §2

[4] = Human liver cytosol stability assay; format: in vitro ADME; details: human liver cytosol 1 mg/mL, 1 or 10 μM, 37° C.
Experimental: Human Liver Cytosol Stability Assay
Method description: Human liver cytosol (pooled, >30 male and female donors) was incubated with individual test compounds in order to compare the extent of depletion of test compound and formation of the respective oxidised metabolite. […] An incubation volume of 1000 μL was used. The test compound was added from a stock solution in acetonitrile at 1 or 10 μM concentration in the incubation. Incubations were performed at 37° C. Reactions were stopped at 0 h and 4 h after incubation by addition of 100 μL acetonitrile to 250 μL of incubation mixture. Precipitated proteins were removed by centrifugation at approximately 3000 rpm. The supernatants were stored at approximately −20° C. until they were analysed. […]
Data analysis: The depletion of the test compound and formation of the corresponding metabolites were determined by decrease or increase of the corresponding peak area in the chromatogram after UV detection at approximately 300 nm 4 h after incubation compared to that at 0 h after incubation. […]

[5] = tested on: CFA-induced mechanical hyperalgesia; experiment: Rat CFA in vivo model (mechanical hyperalgesia, paw withdrawal threshold); design: species or system Male Sprague Dawley rats; details: 3 mg/kg p.o., dosed 24 hours after CFA injection
Experimental: Rat CFA In Vivo Model Male Sprague Dawley rats were used. Mechanical hyperalgesia was induced by injecting 25 μl of Complete Freund's Adjuvant (CFA) into the plantar surface of one hind paw. Mechanical hyperalgesia was measured using the Pressure Application Measurement apparatus (Ugo Basile, Gemonio, Italy). Briefly, a linearly increasing pressure was applied to an area of ˜50 mm2 of the plantar side of the hind paw until a behavioural response (paw withdrawal) was observed or until the pressure reached 1000 gf. The pressure at which the behavioural response occurred was recorded as the “Paw Withdrawal Threshold” (PWT). Both CFA-injected and contralateral PWTs were determined for each rat, in each treatment group and at each time point of the studies. […] Compounds were dosed 24 hours after CFA injection. Data were expressed as the mean PWT for each treatment group and at each time point. Data were analysed by performing a repeated measures two way ANOVA (time×treatment). Planned comparison of means (each versus vehicle) was performed by using a Dunnett's post hoc test, provided that a main effect was detected. […] More preferred examples of the present invention show rat CFA in vivo efficacy in the ‘Paw withdrawal threshold 6 hours post drug’ measure when dosed at 3 mg/kg p.o.

[6] = tested on: CFA-induced mechanical hyperalgesia; experiment: Mouse CFA in vivo model (von Frey filaments); design: species or system Female C57BL/6 mice; details: 25 mg/kg p.o. b.i.d., 72 hrs after CFA-injection
Experimental: Mouse CFA In Vivo Model […] Mechanical hyperalgesia was measured using von Frey filaments. Briefly, von Frey filaments were being used to stimulate the animal's hindpaw and a behavioural response was measured depending on the strength of the von Frey filament used. The strength of the filament was expressed in [g] and the threshold was recorded when a response of the animal was observed. Both CFA-injected and contralateral response thresholds were determined for each mouse and in each treatment group 72 hrs after CFA-injection. Compound application was done p.o. b.i.d., starting one hour before CFA injection. Data were expressed as the mean threshold for each treatment group. Data were analysed by performing a one way ANOVA over the different dose groups. Planned comparison of means (each versus vehicle) was performed by using a Dunnett's post hoc test, provided that a main effect was detected.

vaginal hyperalgesia = experiment: Rat dyspareunia model (visceromotor response to vaginal distension); format: in vivo, female Sprague Dawley rats
Source text: The visceromotor response (VMR) to vaginal distension was used in conscious animals as an objective measure of vaginal sensitivity. […] To measure VMR response, 2 Teflon-coated wire electrodes were sutured in the external oblique abdominal muscle, and tunneled subcutaneously to be exteriorized at the base of the neck for future access. On the day of VMR assessment, a lubricated small balloon (1 cm length) was inserted into the mid-vaginal canal. The balloon catheter was secured to the base of the tail and connected to a volume controller/timing device (infusion pump) for balloon distension. The vaginal balloon was inflated to ramp intensities of distension (0.05 ml increments every 20 sec.) to a maximal volume of 0.8 ml. The electrodes were connected to an amplifier (Animal Bio Amp, ADInstrunnents), and the abdominal electromyographic signal was recorded using a data acquisition system (PowerLab, ADInstrunnents) for off-line analysis using LabChart version 7. The number of abdominal muscle contractions was counted manually for each 0.1 ml distension step, as an index of vaginal pain. […] All data were expressed as mean±standard deviation (s.d.), for the number (n) of measured rats per group. […] Planned comparison of means (matched-volume versus vehicle) was performed using a Bonferroni post hoc test, provided that a main effect was detected. […]

[7] = In vivo pharmacokinetics in dogs; details: Beagle, plasma, dog
Experimental: For pharmacokinetics after intragastral administration test compounds were given intragastral to fasted rats, dogs and monkeys. […] An aliquot of 100 μL from the supernatant (plasma) was taken and precipitated by addition of 400 μL cold acetonitril and frozen at −20° C. over night. Samples were subsequently thawed and centrifuged at 3000 rpm, 4° C. for 20 minutes. Aliquots of the supernatants were taken for analytical testing using an Agilent HPLC-system with LCMS/MS detection. PK parameters were calculated by non-compartmental analysis using a PK calculation software, (e.g. Phoenix WinNonlin®, Certara USA, Inc.).
PK parameters directly taken or calculated from concentration time profiles after i.g.: Cmax: Maximal plasma concentration (directly taken from the profile in mg/L); Cmaxnorm: Cmax divided by the administered dose (in kg/L); Tmax: Time point at which Cmax was observed (in h).

Compound	Human liver microsome Fmax [1] [%]	Rat hepatocyte Fmax (rat hepatocytes) [%]	IC50 (CYP1A2) [µM]	IC50 (CYP2C8) [µM]	IC50 (CYP2C9) [µM]	IC50 (CYP2D6) [µM]	IC50 (CYP3A4 [2]) [µM]	IC50 (CYP3A4 [3]) [µM]	Test compound turnover after 4 h [4] [%]	Paw withdrawal threshold 6 hour-post drug [5]	Efficacy mouse CFA model (von Frey response threshold) [6]	vaginal hyperalgesia compared to vehicle-treated animals (vaginal hyperalgesia; 15 mg/kg oral b.i.d. during 2 weeks)	AUC of cumulative number of abdominal contractions against vaginal distension volume (vaginal hyperalgesia; 15 mg/kg oral b.i.d. for 2 weeks, 6 weeks post-implantation (off-drug), mean ± s.d.)	half-life ([7]; iv, 0.5 mg/kg i.v., read-out: Dog t½ i.v. (converted)) [h]	bioavailability ([7]; oral, 1 mg/kg p.o., 0.5 mg/kg i.v., read-out: Dog Bioavailability (BA)) [%]	half-life ([7]; po, 1 mg/kg p.o., read-out: Dog t½ p.o. (converted)) [h]
Cc1cnc(-c2cc(OC(C)C(C)O)cc(C(=O)N[C@H](C)c3cnc(C(F)(F)F)nc3)c2)s1 (single isomer, unassigned) [Example 163]	100	53	> 20	> 20	> 20	> 20	> 20	> 20	–	–	–	–	–	–	–	–
Cc1cnc(-c2cc(O[C@@H]3CCOC3)cc(C(=O)N[C@H](C)c3cnc(C(F)(F)F)nc3)c2)s1 [Example 11, 3-(5-Methyl-1,3-thiazol-2-yl)-5-[(3R)-tetrahydrofuran-3-yloxy]-N-{(1R)-1-[2-(trifluoromethyl)pyrimidin-5-yl]ethyl}benzamide]	57	52	–	–	–	–	–	–	12	639 ± 48 gf (*)	0.682 g ± 0.122 (*)	decreased vaginal hyperalgesia	1.64 ± 1.53 (17)	8.8	70	12
